Columns and labels:
Assay in all cases: Capture of cells by sulfated octasaccharide-coated magnetic beads on microfluidic chip
Format in all cases: cell-based
[1] = tested on: Huh-28; settings: for specificity of capture among the eight cell lines: Huh28, a cholangiocarcinoma (CCA) cell line, versus the other cell lines; for capture rate: Huh-28 cells
Experimental: (§1) Preparation of magnetic beads pre-coated with a sulfated octasaccharide. The surface of magnetic beads was respectively coated with the sulfated octasaccharides of the present invention (e.g., HS1, HS12 and etc) with three different concentrations (1 μM, 10 μM and 100 μM). Briefly, sulfated octasaccharides were first incubated with Dynabeads® MyOne™ Streptavidin T1 (˜7-10×10^9 beads/mL, Ø=1 μm, Invitrogen Co., USA) in a volume ratio of 1:10 for 30 min. Then beads were collected by using a magnet for 5 min, followed by discarding the supernatant and washing thrice by using 1-mL deionized (DI) water. Finally, the coated beads were suspended in the equal volume of DI water as the initial volume of Dynabeads® taken from the vial.
(§2) The microfluidic chip constructed above was employed to capture cancerous cells. Briefly, 2×10^5 cells from various types of cancerous cell lines were suspended in 100 μL×phosphate buffered saline (PBS) buffer and loaded into six capture chambers, respectively. 10 μL of different concentrations of sulfated octasaccharides coated beads were manually pipetted in the capture chambers, and gently mixed with cells by the micropumps for 15 min. After incubation, the cells were identified and bound by the magnetic beads pre-coated with the sulfated octasaccharides of formula (I) of the present invention. Then, these captured cells were collected with a magnetic force and washed by 1×PBS buffer. After isolating, the beads and captured cells were suspended in 100 μL 1×PBS buffer, and finally loaded into a hemocytometer to calculate the capture rates.
(§3) In a pre-test, total of 8 cancer cell lines (i.e., MMNK-1, SNU-478, HuCCT-1, Huh-28, KKU-100, HepG2, BxPC3, and HCT8) were respectively loaded into the microsystem and incubated with the magnetic beads, then the captured cells were collected with a magnetic force, and finally loaded into a hemocytometer to calculate the capture rates.
FIG. 2 illustrates that the cancer cells, Huh-28, could be successfully captured by magnetic beads pre-coated with HS 1 of 100 μM. Huh-28 cells before being captured by magnetic beads are depicted in FIG. 2, panel a. After well mixing Huh-28 cells and beads for 30 mins, cells were surrounded by beads (FIG. 2, panel b). The supernatant collection through an isolation process by magnetic force after 30-min incubation is depicted in FIG. 2, panel c.

[2] = tested on: BxPC3
Experimental: as §1, §2, §3

[3] = tested on: SNU-478; settings: SNU-478 cells
Experimental: as §1, §2, §3

[4] = tested on: HCT8
Experimental: as §1, §2, §3

[5] = tested on: KKU-100; settings: KKU-100 cells
Experimental: as §1, §2, §3

[6] = tested on: HepG2
Experimental: as §1, §2, §3

[7] = tested on: HuCCT-1; settings: for capture rate: HuCCT-1 cells; for capture rate, in words: metastasized CCA cells (HuCCT-1)
Experimental: as §1, §2, §3

[8] = tested on: MMNK-1; settings: for capture rate: MMNK-1 cells; for capture rate, in words: normal cells (MINK-1)
Experimental: as §1, §2, §3

[9] = tested on: Huh-28; settings: Huh-28 cells; EpCAM-coated beads

Row | Molecule | specificity of capture among the eight cell lines [1] | capture rate ([1]; beads coated with HS at 1 μM) [%] | capture rate ([1]; beads coated with HS at 10 μM) [%] | capture rate ([1]; beads coated with HS at 100 μM) [%] | capture rate ([2]; beads coated with HS at 1 μM) [%] | capture rate ([2]; beads coated with HS at 10 μM) [%] | capture rate ([2]; beads coated with HS at 100 μM) [%] | capture rate ([3]; beads coated with HS at 1 μM) [%] | capture rate ([3]; beads coated with HS at 10 μM) [%] | capture rate ([3]; beads coated with HS at 100 μM) [%] | capture rate ([4]; beads coated with HS at 1 μM) [%] | capture rate ([4]; beads coated with HS at 10 μM) [%] | capture rate ([4]; beads coated with HS at 100 μM) [%] | capture rate ([5]; beads coated with HS at 1 μM) [%] | capture rate ([5]; beads coated with HS at 10 μM) [%] | capture rate ([5]; beads coated with HS at 100 μM) [%] | capture rate ([6]; beads coated with HS at 1 μM) [%] | capture rate ([6]; beads coated with HS at 10 μM) [%] | capture rate ([6]; beads coated with HS at 100 μM) [%] | capture rate ([7]; beads coated with HS at 1 μM) [%] | other results
1 | CC(=O)NC1C(O)[C@H](O)C(CO)O[C@@H]1O[C@@H]1C(C(=O)[O-])O[C@@H](O[C@@H]2C(CO)O[C@H](O[C@@H]3C(C(=O)[O-])O[C@@H](O[C@@H]4C(CO)O[C@H](O[C@@H]5C(C(=O)[O-])O[C@@H](O[C@@H]6C(CO)O[C@H](O[C@@H]7C(C(=O)[O-])O[C@@H](OCCCCCN)C(O)C7O)C(NC(C)=O)C6O)C(O)C5O)C(NC(C)=O)C4O)C(O)C3O)C(NC(C)=O)C2O)C(O)C1O.[Na+].[Na+].[Na+].[Na+] (stereo partly drawn) [HS 1, 5-Aminopentyl (2-acetamido-2-deoxy-α-D-glucopyranosyl)-(1→4)-α-L-idopyranosiduronyl-(1→4)-(2-acetamido-2-deoxy-α-D-glucopyranosyl)-(1→4)-α-L-idopyranosiduronyl-(1→4)-(2-acetamido-2-deoxy-α-D-glucopyranosyl)-(1→4)-α-L-idopyranosiduronyl-(1→4)-(2-acetamido-2-deoxy-α-D-glucopyranosyl)-(1→4)-α-L-idopyranosiduronate] | highly specific to Huh28 | 65 ± 20 | 70 ± 10 | 78 ± 14 | 15 ± 5 | 18 ± 4 | 13 ± 7 | 23 ± 13 | 20 ± 8 | 22 ± 7 | 18 ± 5 | 14 ± 4 | 13 ± 3 | 40 ± 10 | 46 ± 1 | 51 ± 2 | 12 ± 0 | 16 ± 6 | 10 ± 4 | 4 ± 1 | capture rate ([1]; beads coated with HS at 100 μM, listed as HS1): 78±14%; capture of Huh-28 cells seen in photographs (FIG. 2) ([1]; beads coated at 100 μM, 30-min incubation, few cells left in supernatant): Almost all of the Huh-28 cells were captured and isolated; capture rate ([7]; beads coated with HS at 10 μM): 6 ± 2%; capture rate ([7]; beads coated with HS at 100 μM): 4 ± 1%; capture rate, in words [7]: relatively low; capture rate ([8]; beads coated with HS at 1 μM): 58 ± 11%; capture rate ([8]; beads coated with HS at 10 μM): 52 ± 6%; capture rate ([8]; beads coated with HS at 100 μM): 34 ± 5%; capture rate, in words [8]: relatively low
2 | NCCCCCO[C@@H]1O[C@H](C(=O)O)[C@@H](O[C@H]2O[C@H](COS(=O)(=O)O)[C@@H](O[C@@H]3O[C@@H](C(=O)O)[C@@H](O[C@H]4O[C@H](COS(=O)(=O)O)[C@@H](O[C@@H]5O[C@H](C(=O)O)[C@@H](O[C@H]6O[C@H](COS(=O)(=O)O)[C@@H](O[C@@H]7O[C@@H](C(=O)O)[C@@H](O[C@H]8O[C@H](COS(=O)(=O)O)[C@@H](O)[C@H](O)[C@H]8NS(=O)(=O)O)[C@H](O)[C@H]7OS(=O)(=O)O)[C@H](O)[C@H]6NS(=O)(=O)O)[C@H](O)[C@H]5OS(=O)(=O)O)[C@H](O)[C@H]4NS(=O)(=O)O)[C@H](O)[C@H]3OS(=O)(=O)O)[C@H](O)[C@H]2NS(=O)(=O)O)[C@H](O)[C@H]1OS(=O)(=O)O [HS 12] | highly specific to Huh28 | 66 ± 6 | 67 ± 3 | 73±4 | 16 ± 6 | 11 ± 3 | 7 ± 3 | 20 ± 5 | 17 ± 7 | 16 ± 8 | 16 ± 3 | 13 ± 0 | 9 ± 2 | 42 ± 3 | 44 ± 2 | 41 ± 11 | 14 ± 1 | 11 ± 4 | 9 ± 6 | 5 ± 1 | capture rate ([7]; beads coated with HS at 10 μM): 5 ± 2%; capture rate ([7]; beads coated with HS at 100 μM): 4 ± 2%; capture rate, in words [7]: relatively low; capture rate ([8]; beads coated with HS at 1 μM): 55 ± 7%; capture rate ([8]; beads coated with HS at 10 μM): 47 ± 20%; capture rate ([8]; beads coated with HS at 100 μM): 16 ± 8%; capture rate, in words [8]: relatively low
3 | EpCAM: epithelial cell adhesion molecule (EpCAM)-coated beads, comparison capture reagent (protein, UniProt P16422 24-314, looked up, coated on beads, epithelial cell adhesion molecule (EpCAM)-coated beads, comparison capture reagent) Epithelial cell adhesion …: QEECVCENYKLAVNCFVNNNRQCQCTSVGAQNTVICSKLAAKCLVMKAEMNGSKLGRRAKPEGALQNNDGLYDPDCDESGLFKAKQCNGTSMCWCVNTAGVRRTDKDTEITCSERVRTYWIIIELKHKAREKPYDSKSLRTALQKEITTRYQLDPKFITSILYENNVITIDLVQNSSQKTQNDVDIADVAYYFEKDVKGESLFHSKKMDLTVNGEQLDLDPGQTLIYYVDEKAPEFSMQGLKAGVIAVIVVVVIAVVAGIVVLVISRKKRMAKYEKAEIKEMGEMHRELNA | – | – | – | – | – | – | – | – | – | – | – | – | – | – | – | – | – | – | – | – | capture rate [9]: 58±19%; capture rate ([2]; EpCAM-coated beads): 45 ± 6%; capture rate ([3]; EpCAM-coated beads): 74 ± 6%; capture rate ([4]; EpCAM-coated beads): 22 ± 3%; capture rate ([5]; EpCAM-coated beads): 51 ± 5%; capture rate ([6]; EpCAM-coated beads): 44 ± 7%; capture rate ([7]; EpCAM-coated beads): 67 ± 11%; capture rate ([8]; EpCAM-coated beads): 58 ± 8%
